Laboratory results reported in patent publication US6503912B1, “Substituted guanidine derivatives” (Bayer Aktiengesellschaft, priority 1998, dated 2003).

Assay: logP determination by HPLC (EEC directive 79/831 Annex V. A8)
Conditions: HPLC gradient method, acetonitrile/0.1% aqueous phosphoric acid
Description: [logP=The logP values were determined in accordance with EEC directive 79/831 Annex V. A8 by HPLC (gradient method, acetonitrile/0.1% aqueous phosphoric acid]

Structure (SMILES): O=C(OCN1CCN(Cc2ccc(Cl)nc2)C1=N[N+](=O)[O-])C1CC1 [Example 59]
- logP (pH = 2.3): 1.57
